# Target: KRAS (aa 1-169) G12C, C51S, C80L, C118S (Homo sapiens (Human), UniProt P01116, C118S/C51S/C80L/G12C)
# Assay: Biochemical functional assay: SOS1-mediated nucleotide exchange of GDP-loaded KRAS G12C, binding to GST-cRaf RBD, FRET readout
# Conditions: 3 hrs pre-incubation with compound at 24° C., SOS1, GTPyS, inhibition of nucleotide exchange
# Method: Biochemical Functional Assay
# The KRAS (aa 1-169) G12C, C51S, C80L, C118S with a His-tag was expressed, purified and loaded with GDP in house. All protein and substrate solutions were prepared in assay buffer containing 25 mM HEPES pH7.5, 10 mM MgCl2, and 0.01% Triton X-100. Purified GDP-loaded KRAS (aa 1-169) G12C, C51S, C80L, C118S protein was pre-incubated with a serially diluted compound at 24° C. for 3 hrs. Purified SOS1 (aa 564-1049) protein, GTPyS (Sigma) and GST-cRaf RBD (aa 1-149) were then added to each well and incubated at 24° C. for additional 3 hrs. […] Following the incubation, Mab Anti-6HIS-T cryptate (Cisbio) and Mab Anti GST-XL665 (Cisbio) were added and further incubated at 24° C. for 3 hrs. The binding interaction between active GTPyS KRAS G12C and GST-cRaf RBD brings the Tb and XL665 into close proximity enabling an increased FRET signal (Ex337 nm, Em665 nm/620 nm). The inhibition percentage of nucleotide exchange reaction in presence of increasing concentrations of compounds was calculated based on the ratio of fluorescence at 665 nm to that at 620 nm detected on a BMG PHERAstar FSX instrument. The IC50 value of each compound was calculated from fitting the data to the four-parameter logistic model by Dotmatics.
# Chain of KRAS (aa 1-169) G12C, C51S, C80L, C118S (P01116 other isoform, or with tags, fused parts or gaps G12C/C51S/C80L/C118S): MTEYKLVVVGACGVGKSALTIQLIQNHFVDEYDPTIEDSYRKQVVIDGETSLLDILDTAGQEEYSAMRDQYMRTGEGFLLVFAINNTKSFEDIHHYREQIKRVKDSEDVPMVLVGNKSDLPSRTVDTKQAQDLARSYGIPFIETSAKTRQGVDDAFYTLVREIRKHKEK
row,Structure (SMILES),IC50
1,"C=CC(=O)N1CCN(c2ncnc3cc(-c4c(Cl)ccc5[nH]ncc45)c4c(c23)OCCC4)C[C@@H]1CC#N (single isomer, unassigned) [Compound A14]",79.4 nM
2,"C=C(F)C(=O)N1CCN(c2nc(OC[C@@H]3CCCN3C)nc3cc(-c4cccc5cccc(C)c45)c4c(c23)OCCC4)C[C@@H]1CC#N [Compound B43, 2-((S)-1-(2-fluoroacryloyl)-4-(5-(8-methylnaphthalen-1-yl)-8-(((S)-1-methylpyrrolidin-2-yl)methoxy)-3,4-dihydro-2H-pyrano[2,3-f]quinazolin-10-yl)piperazin-2-yl)acetonitrile]",13 nM
3,"C=C(F)C(=O)N1CCN(c2nc(OC[C@H]3C[C@@H](OC)CN3C)nc3cc(-c4cccc5cccc(Cl)c45)c4c(c23)OCCC4)C[C@@H]1CC#N (single isomer, unassigned) [Compound B107]",3.26 nM
4,"C=C(F)C(=O)N1CCN(c2nc(OC[C@@H]3CCCN3C)nc3cc(-c4cccc5cccc(Cl)c45)c4ccoc4c23)C[C@@H]1CC#N [Compound B41, 2-((S)-4-(4-(8-chloronaphthalen-1-yl)-7-(((S)-1-methylpyrrolidin-2-yl)methoxy)furo[2,3-f]quinazolin-9-yl)-1-(2-fluoroacryloyl)piperazin-2-yl)acetonitrile]",3.8 nM
5,"C=C(F)C(=O)N1CCN(c2nc(OC[C@@H]3CCCN3C)nc3cc(-c4cccc5c4CCC5)c4c(c23)OCCC4)C[C@@H]1CC#N [Compound B78, 2-((S)-4-(5-(2,3-dihydro-1H-inden-4-yl)-8-(((S)-1-methylpyrrolidin-2-yl)methoxy)-3,4-dihydro-2H-pyrano[2,3-f]quinazolin-10-yl)-1-(2-fluoroacryloyl)piperazin-2-yl)acetonitrile]",12 nM
6,"C=C(F)C(=O)N1CCN(c2nc(OC[C@@H]3CCCN3C)nc3cc(-c4c(Cl)c(Cl)cc5[nH]ncc45)c4c(c23)OCCC4)C[C@@H]1CC#N [Compound B36, 2-((2S)-4-(5-(5,6-dichloro-1H-indazol-4-yl)-8-(((S)-1-methylpyrrolidin-2-yl)methoxy)-3,4-dihydro-2H-pyrano[2,3-f]quinazolin-10-yl)-1-(2-fluoroacryloyl)piperazin-2-yl)acetonitrile]",47 nM
7,"C=C(F)C(=O)N1CCN(c2nc(OCC3C[C@@H](OC)CN3C)nc3cc(-c4cccc5cccc(Cl)c45)c4c(c23)OCCC4)C[C@@H]1CC#N (single isomer, unassigned) [Compound B95]",11.5 nM
8,"C=CC(=O)N1CCN(c2nc(OC[C@@H]3CCCN3C)nc3cc(-c4cccc5cccc(Cl)c45)c4c(c23)OCCC4)C[C@@H]1CC#N [Compound B82, 2-((S)-1-acryloyl-4-(5-(8-chloronaphthalen-1-yl)-8-(((S)-1-methylpyrrolidin-2-yl)methoxy)-3,4-dihydro-2H-pyrano[2,3-f]quinazolin-10-yl)piperazin-2-yl)acetonitrile]",6.2 nM
9,"C=CC(=O)N1CC2(CCN(c3ncnc4cc(-c5c(O)cccc5F)c5c(c34)OCCC5)CC2)C1 [Compound A5, 1-(7-(5-(2-fluoro-6-hydroxyphenyl)-3,4-dihydro-2H-pyrano[2,3-f]quinazolin-10-yl)-2,7-diazaspiro[3.5]nonan-2-yl)prop-2-en-1-one]",1690 nM
10,"C=CC(=O)N1CCN(c2nc(OC[C@@H]3CCCN3C)nc3cc(-c4cccc5cccc(Cl)c45)c4c(c23)OCCC4)[C@@H](C)C1 [Compound B63, 1-((S)-4-(5-(8-chloronaphthalen-1-yl)-8-(((S)-1-methylpyrrolidin-2-yl)methoxy)-3,4-dihydro-2H-pyrano[2,3-f]quinazolin-10-yl)-3-methylpiperazin-1-yl)prop-2-en-1-one]",148 nM
11,"C=C(F)C(=O)N1CCN(c2nc(OCC3C[C@@H](OC)CN3C)nc3cc(-c4cccc5cccc(Cl)c45)c4c(c23)OCCC4)C[C@@H]1CC#N (single isomer, unassigned) [Compound B97]",508 nM
12,"C=C(F)C(=O)N1CCN(c2ncnc3cc(-c4c(Cl)c(C)cc5[nH]ncc45)c4c(c23)OCCC4)C[C@@H]1CC#N [Compound A23, 2-((2S)-4-(5-(5-chloro-6-methyl-1H-indazol-4-yl)-3,4-dihydro-2H-pyrano[2,3-f]quinazolin-10-yl)-1-(2-fluoroacryloyl)piperazin-2-yl)acetonitrile]",346 nM
13,"C=C(F)C(=O)N1CCN(c2nc(N3CCCC(N(C)C)C3)nc3cc(-c4cccc5cccc(Cl)c45)c4c(c23)OCCC4)C[C@@H]1CC#N (stereo partly drawn) [Compound B74, 2-((2S)-4-(5-(8-chloronaphthalen-1-yl)-8-(3-(dimethylamino)piperidin-1-yl)-3,4-dihydro-2H-pyrano[2,3-f]quinazolin-10-yl)-1-(2-fluoroacryloyl)piperazin-2-yl)acetonitrile]",837 nM
14,"C=CC(=O)N1CCN(c2nc(N3CC(N(C)C)C3)nc3cc(-c4cccc5ccccc45)c4c(c23)OCCC4)CC1 [Compound B10, 1-(4-(8-(3-(dimethylamino)azetidin-1-yl)-5-(naphthalen-1-yl)-3,4-dihydro-2H-pyrano[2,3-f]quinazolin-10-yl)piperazin-1-yl)prop-2-en-1-one]",235 nM
15,"C=CC(=O)N1CCN(c2nc(OC[C@@H]3CCCN3C)nc3cc(-c4c(C)cccc4C)c4ccoc4c23)CC1 [Compound B56, (S)-1-(4-(4-(2,6-dimethylphenyl)-7-((1-methylpyrrolidin-2-yl)methoxy)furo[2,3-f]quinazolin-9-yl)piperazin-1-yl)prop-2-en-1-one]",632 nM
16,"C=C(F)C(=O)N1CCN(c2nc(OC[C@@H]3CCCN3C)nc3cc(-c4cccc5cccc(Cl)c45)c4c(c23)OCCC4)C[C@@H]1CC#N [Compound B66, 2-((S)-4-(5-(8-chloronaphthalen-1-yl)-8-(((S)-1-methylpyrrolidin-2-yl)methoxy)-3,4-dihydro-2H-pyrano[2,3-f]quinazolin-10-yl)-1-(2-fluoroacryloyl)piperazin-2-yl)acetonitrile]",9.3 nM
17,"C=C(F)C(=O)N1CCN(c2nc(OC[C@H]3CCCN3C)nc3cc(-c4cccc5cccc(Cl)c45)c4c(c23)OCCC4)C[C@@H]1CC#N (single isomer, unassigned) [Compound B104]",8.16 nM
18,"C=CC(=O)N1CCN(c2ncnc3cc(-c4cc(C)cc5[nH]ncc45)c4c(c23)OCCC4)C[C@@H]1CC#N [Compound A11, (S)-2-(1-acryloyl-4-(5-(6-methyl-1H-indazol-4-yl)-3,4-dihydro-2H-pyrano[2,3-f]quinazolin-10-yl)piperazin-2-yl)acetonitrile]",799 nM
19,"C=CC(=O)N1CCN(c2ncnc3cc(-c4c(C)cccc4F)c4c(c23)OCCC4)C[C@@H]1CC#N [Compound A33, 2-((2S)-1-acryloyl-4-(5-(2-fluoro-6-methylphenyl)-3,4-dihydro-2H-pyrano[2,3-f]quinazolin-10-yl)piperazin-2-yl)acetonitrile]",233 nM
20,"C=C(F)C(=O)N1CCN(c2nc(OC[C@@H]3C[C@@H](F)CN3C)nc3cc(-c4cccc5cccc(Cl)c45)c4ccoc4c23)C[C@@H]1CC#N [Compound B65, 2-((S)-4-(4-(8-chloronaphthalen-1-yl)-7-(((2S,4R)-4-fluoro-1-methylpyrrolidin-2-yl)methoxy)furo[2,3-f]quinazolin-9-yl)-1-(2-fluoroacryloyl)piperazin-2-yl)acetonitrile]",30 nM
21,"C=C(F)C(=O)N1CCN(c2nc(N3CC(N(C)C)C3)nc3cc(-c4cccc(F)c4F)c4c(c23)OCCC4)C[C@@H]1CC#N [Compound B9, (S)-2-(4-(5-(2,3-difluorophenyl)-8-(3-(dimethylamino)azetidin-1-yl)-3,4-dihydro-2H-pyrano[2,3-f]quinazolin-10-yl)-1-(2-fluoroacryloyl)piperazin-2-yl)acetonitrile]",456 nM
22,"C=CC(=O)N1CCN(c2ncnc3cc(-c4c(Cl)c(F)cc5[nH]ncc45)c4c(c23)OCCC4)CC1 [Compound A19, 1-(4-(5-(5-chloro-6-fluoro-1H-indazol-4-yl)-3,4-dihydro-2H-pyrano[2,3-f]quinazolin-10-yl)piperazin-1-yl)prop-2-en-1-one]",691 nM
23,"C=CC(=O)N1CCN(c2nc(O[C@H]3CN(C)C[C@@H]3OC)nc3cc(-c4c(Cl)c(C)cc5[nH]ncc45)c4c(c23)OCCC4)C[C@@H]1CC#N [Compound B3, 2-((2S)-1-acryloyl-4-(5-(5-chloro-6-methyl-1H-indazol-4-yl)-8-(((3S,4S)-4-methoxy-1-methylpyrrolidin-3-yl)oxy)-3,4-dihydro-2H-pyrano[2,3-f]quinazolin-10-yl)piperazin-2-yl)acetonitrile]",6.5 nM
24,"C=CC(=O)N1CCN(c2ncnc3cc(-c4c(Cl)ccc5[nH]ncc45)c4c(c23)OCCC4)C[C@@H]1CC#N (single isomer, unassigned) [Compound A15]",92.6 nM
25,"C=CC(=O)N1CCN(c2ncnc3cc(-c4c(C)c(Cl)cc5[nH]ncc45)c4c(c23)OCCC4)C[C@@H]1CC#N [Compound A26, 2-((2S)-1-acryloyl-4-(5-(6-chloro-5-methyl-1H-indazol-4-yl)-3,4-dihydro-2H-pyrano[2,3-f]quinazolin-10-yl)piperazin-2-yl)acetonitrile]",9.9 nM
